Assay results from patent US20080305186A1, “Method and Composition for the Treatment of Cardiac Hypertrophy” (BOARD OF REGENTS, THE UNIVERSITY OF TEXAS SYSTEM, priority 2007, published 2008).

Tested on: cardiac gene expression
Test: Microarray analysis of cardiac gene expression (GeneChip Mouse Genome 430 2.0)
Assay type: in vivo, mice
Procedure: Microarray Sample Preparation and Analysis. Animal hearts were rapidly removed, and the atria and right ventricles were cut and immediately plunged into TRIzol Reagent (Life Technologies). Total RNA was isolated following the manufacturer's instructions, purified by phenol-chloroform extraction and then ethanol precipitation, and 20 μg further processed for microarray analysis. Briefly, cDNA synthesis, in vitro transcription, and labeling and fragmentation to produce the oligonucleotide probes were performed as instructed by the GeneChip manufacturer (Affymetrix). The probes were first hybridized to a test array (Affymetrix) and then to the GeneChip Mouse Genome 430 2.0 Array, using the GeneChip Hybridization Oven 640. The chips were washed in a GeneChip Fluidics Station 450 (Affymetrix), and the results were visualized with a GeneChip G7 scanner (Affymetrix). RMA normalization, pairwise comparisons, Student's t test and Benjamini and Hochberg correction were subsequently performed using GeneSifter (VizX Labs, Seattle, Wash.) and Spotfire DecisionSite 8.3 (Spotfire, Inc., Somerville, Mass.).
Effects on Gene Expression Profile. […] One mouse heart was used for each array, and was performed in triplicate, generating a total of 12 arrays. GeneSifter was used to perform RMA normalization, pairwise comparisons of averaged signal intensity values, and Student's t-test with Benjamini and Hochberg correction, and Spotfire was used to perform pairwise comparisons. […] Additionally, genes that were altered between any two N or cardiac hypertrophy samples were removed, as these alterations most likely represented normal variations between mice.

## C[C@H]1c2cccc(O)c2C(=O)C2=C(O)[C@]3(O)C(=O)C(C(N)=O)=C(O)[C@@H](N(C)C)[C@@H]3[C@@H](O)[C@@H]21 [doxycycline]
GenBank BM245060, vs mice given only isoproterenol
  FC EST: −2.3
GenBank BM245170, vs mice given only isoproterenol
  FC Fos-like antigen 2 (Fosl2): −2.6
GenBank BM246377, vs mice given only isoproterenol
  FC ESTs: −1.9
GenBank BM899392, vs mice given only isoproterenol
  FC Cytoglobin (Cygb): 1.8
GenBank BM936480, vs mice given only isoproterenol
  FC Flavin containing monooxygenase 2 (Fmo2): −2.7
GenBank BM945528, heart, drug + isoproterenol vs isoproterenol-only mice, CH vs normal FC 1.6
  FC Tripartite motif protein 24 (Trim24): −1.8 fold
GenBank BQ031006, vs mice given only isoproterenol
  FC Headcase homolog (Heca): −2.2
GenBank BQ174721, vs mice given only isoproterenol
  FC SERTA domain containing 4 (Sertad4): 2.0
GenBank BQ176399, vs mice given only isoproterenol
  FC EST: −1.6
GenBank BQ176610, vs mice given only isoproterenol
  FC Sema domain, seven thrombospondin repeats (type 1 and type 1-like), transmembrane domain (TM) and short cytoplasmic domain, (semaphorin) 5A (Sema5a): −3.9
GenBank C77858, heart, drug + isoproterenol vs isoproterenol-only mice, CH vs normal FC 2.1
  FC Transmembrane protein 38B (Tmem38b): −1.5 fold
GenBank C79823, vs mice given only isoproterenol
  FC Mitochondrial ribosomal protein L45 (Mrpl45): 2.4
GenBank D17444, vs mice given only isoproterenol
  FC Leukemia inhibitory factor receptor (Lifr): −2.0
GenBank D63902, heart, drug + isoproterenol vs isoproterenol-only mice, CH vs normal FC 1.7
  FC Tripartite motif protein 25 (Trim25): −2.1 fold
GenBank L20048, vs mice given only isoproterenol
  FC L20048: −1.9
GenBank M12481, vs mice given only isoproterenol
  FC Cytoplasmic beta-actin (Actb): 3.1
GenBank M30697, vs mice given only isoproterenol
  FC Multidrug resistae protein (MDR) (Acb1a): −2.6
GenBank NM_007434, heart, drug + isoproterenol vs isoproterenol-only mice, CH vs normal FC −1.8
  FC Thymoma viral proto-oogene 2 (Akt2): 1.7 fold
GenBank NM_007897, vs mice given only isoproterenol
  FC Early B-cell factor (Ebf1): 2.1
GenBank NM_007945, vs mice given only isoproterenol
  FC Epidermal growth factor receptor pathway substrate 8 (Eps8): −1.8
GenBank NM_007987, heart, drug + isoproterenol vs isoproterenol-only mice, CH vs normal FC 2.8
  FC Tumor necrosis factor receptor superfamily, member 6 (Tnfrsf6) (Fas): −2.4 fold
GenBank NM_008129, vs mice given only isoproterenol
  FC Glutamate-cysteine ligase, modifier subunit (Gclm): −1.8
GenBank NM_008416, vs mice given only isoproterenol
  FC Jun-B oogene (Junb): −2.0
GenBank NM_008419, vs mice given only isoproterenol
  FC Potassium voltage-gated channel, shaker-related subfamily, member 5 (Kcna5): −2.4
GenBank NM_008808, vs mice given only isoproterenol
  FC NM_008808: 1.7
GenBank NM_008880, vs mice given only isoproterenol
  FC Pphospholipid scramblase 2 (Plscr2): −1.8
GenBank NM_009114, vs mice given only isoproterenol
  FC S100 calcium binding protein A9 (calgranulin B) (S100a9): −14.0
GenBank NM_009446, heart, drug + isoproterenol vs isoproterenol-only mice, CH vs normal FC −1.9
  FC Tubulin, alpha 3 (Tuba3): 1.9 fold
GenBank NM_009447 (first entry, r874), heart, drug + isoproterenol vs isoproterenol-only mice, CH vs normal FC −4.3
  FC Tubulin, alpha 4 (Tuba4): 4.7 fold
GenBank NM_009447 (second entry, r876), heart, drug + isoproterenol vs isoproterenol-only mice, CH vs normal FC −6.2
  FC Tubulin, alpha 4 (Tuba4): 5.8 fold
GenBank NM_010286, vs mice given only isoproterenol
  FC Glucocorticoid-induced leucine zipper (Gilz) (Dsip1): −2.5
GenBank NM_010741, vs mice given only isoproterenol
  FC Lymphocyte antigen 6 complex, locus C (Ly6c): −2.1
GenBank NM_010809, vs mice given only isoproterenol
  FC Matrix metalloproteinase 3 (Mmp3): −2.9
GenBank NM_010929, vs mice given only isoproterenol
  FC Notch gene homolog 4, (Drosophila) (Notch4): −2.2
GenBank NM_011172, vs mice given only isoproterenol
  FC Proline dehydrogenase (Prodh): −2.0
GenBank NM_011338, vs mice given only isoproterenol
  FC Small inducible cytokine A9 (Scya9) (Ccl9) (Mip-1[…]): −2.1
GenBank NM_013562, vs mice given only isoproterenol
  FC Interferon-related developmental regulator 1 (Ifrd1): −1.6
GenBank NM_013594, vs mice given only isoproterenol
  FC Methyl-CpG binding domain protein 1 (Mbd1): −2.6
GenBank NM_013602, vs mice given only isoproterenol
  FC Metallothionein 1 (Mt1): −2.4
GenBank NM_013650, vs mice given only isoproterenol
  FC S100 calcium binding protein A8 (calgranulin A) (S100a8): −19.9
GenBank NM_016693, vs mice given only isoproterenol
  FC Mitogen-activated protein kinase kinase kinase 6 (Map3k6): −3.2
GenBank NM_017379, heart, drug + isoproterenol vs isoproterenol-only mice, CH vs normal FC −3.3
  FC Tubulin, alpha 8 (Tuba8): 3.1 fold
GenBank NM_018866, vs mice given only isoproterenol
  FC Small inducible cytokine subfamily B (Cys-X-Cys), member 13 (Scyb13) (Cxcl13): −4.4
GenBank NM_019662, vs mice given only isoproterenol
  FC Ras-related associated with diabetes (Rrad): 2.4
GenBank NM_019798, vs mice given only isoproterenol
  FC Phosphodiesterase 4A, cAMP specific (Pde4a): 1.8
GenBank NM_021297, heart, drug + isoproterenol vs isoproterenol-only mice, CH vs normal FC 3.2
  FC Toll-like receptor 4 (TLR4): −2.6 fold
GenBank NM_021398, vs mice given only isoproterenol
  FC Solute carrier family 43, member 3 (Slc43a3): −2.0
GenBank NM_021484, heart, drug + isoproterenol vs isoproterenol-only mice, CH vs normal FC 4.8
  FC Titin immunoglobulin domain protein (Myotilin, Myot): −3.0 fold
GenBank NM_021566, vs mice given only isoproterenol
  FC Jutophilin 2 (Jph2): 2.1
GenBank NM_021897, heart, drug + isoproterenol vs isoproterenol-only mice, CH vs normal FC 4.8
  FC Transformation related protein 53 inducible nuclear protein 1 (Trp53inp1): −3.5 fold
GenBank NM_022331, vs mice given only isoproterenol
  FC Homocysteine-inducible, endoplasmic reticulum stress-inducible, ubiquitin-like domain member 1 (Herpud1): −3.0
GenBank NM_023462, vs mice given only isoproterenol
  FC Retinol binding protein 7, cellular (Rbp7): −1.6
GenBank NM_023719, heart, drug + isoproterenol vs isoproterenol-only mice, CH vs normal FC 1.8
  FC Thioredoxin interacting protein (Txnip): −3.5 fold
GenBank NM_026346, vs mice given only isoproterenol
  FC F-box only protein 32 (Fbxo32): −4.7
GenBank NM_026835, vs mice given only isoproterenol
  FC Membrane-spanning 4-domains, subfamily A, member 6d (Ms4a6d): −2.2
GenBank NM_027209, vs mice given only isoproterenol
  FC Membrane-spanning 4-domains, subfamily A, member 6B (Ms4a6b): −1.7
GenBank NM_029796, vs mice given only isoproterenol
  FC Leucine-rich alpha-2-glycoprotein (Lrg-pending): −2.9
GenBank NM_030614, vs mice given only isoproterenol
  FC Fibroblast growth factor 16 (Fgf16): 2.8
GenBank NM_053085, heart, drug + isoproterenol vs isoproterenol-only mice, CH vs normal FC 3.5
  FC Transcription factor 23 (Tcf23): −2.3 fold
GenBank NM_054037, vs mice given only isoproterenol
  FC Secretoglobin, family 3A, member 1 (Scgb3a1): −2.2
